Source: ChEMBL document CHEMBL5214990, “Novel Aryl Alkamidazole Derivatives as Multifunctional Antifungal Inhibitors: Design, Synthesis, and Biological Evaluation” (J Med Chem, 2022)
In brackets after ≈: the same amount, converted by molar mass.

Tests used:
Type in all cases: functional
Candida albicans [1] = assay: Antifungal activity against Candida albicans ATCC SC5314 assessed as inhibition of fungal growth measured after 72 hrs by CLSI based liquid medium dilution method
Cryptococcus neoformans = assay: Antifungal activity against Cryptococcus neoformans assessed as inhibition of fungal growth measured after 72 hrs by CLSI based liquid medium dilution method
Pichia kudriavzevii = assay: Antifungal activity against Candida krusei ATCC 6258 assessed as inhibition of fungal growth measured after 72 hrs by CLSI based liquid medium dilution method
Candida tropicalis = assay: Antifungal activity against Candida tropicalis ATCC 1369 assessed as inhibition of fungal growth measured after 72 hrs by CLSI based liquid medium dilution method
Aspergillus fumigatus = assay: Antifungal activity against Aspergillus fumigatus KM8001 assessed as inhibition of fungal growth measured after 72 hrs by CLSI based liquid medium dilution method
Candida albicans [2] = assay: Antifungal activity against fluconazole-resistant Candida albicans 17# assessed as inhibition of fungal growth measured after 72 hrs by CLSI based liquid medium dilution method
Candida albicans [3] = assay: Antifungal activity against fluconazole-resistant Candida albicans CaR assessed as inhibition of fungal growth measured after 72 hrs by CLSI based liquid medium dilution method
Candida albicans [4] = assay: Antifungal activity against fluconazole-resistant Candida albicans 632 assessed as inhibition of fungal growth measured after 72 hrs by CLSI based liquid medium dilution method
Candida albicans [5] = assay: Antifungal activity against fluconazole-resistant Candida albicans 901 assessed as inhibition of fungal growth measured after 72 hrs by CLSI based liquid medium dilution method
Candida albicans [6] = assay: Antifungal activity against fluconazole-resistant Candida albicans 904 assessed as inhibition of fungal growth measured after 72 hrs by CLSI based liquid medium dilution method

Row | Compound | MIC50 (Candida albicans [1]) [µg/mL] | MIC50 (Cryptococcus neoformans) [µg/mL] | MIC50 (Pichia kudriavzevii) [µg/mL] | MIC50 (Candida tropicalis) [µg/mL] | MIC50 (Aspergillus fumigatus) [µg/mL] | MIC50 (Candida albicans [2]) [µg/mL] | MIC50 (Candida albicans [3]) [µg/mL] | MIC50 (Candida albicans [4]) [µg/mL] | MIC50 (Candida albicans [5]) [µg/mL] | MIC50 (Candida albicans [6]) [µg/mL]
1 | COc1ccc2cc([C@H](C)C(=O)OC(Cn3cnnn3)c3ccc(F)cc3)ccc2c1 (stereo not given in full) | 1 (≈ 2.38 µM) | 1 (≈ 2.38 µM) | 0.5 (≈ 1.19 µM) | 2 (≈ 4.76 µM) | > 8 | – | – | – | – | –
2 | C[C@H](C(=O)OC(Cn1ccnc1)c1ccc(F)cc1)c1ccc(CC2CCCC2=O)cc1 (stereo not given in full) | 2 (≈ 4.6 µM) | 2 (≈ 4.6 µM) | 1 (≈ 2.3 µM) | 2 (≈ 4.6 µM) | > 8 | – | – | – | – | –
3 | CC(=O)N1CCN(c2ccc(OCC3COC(Cn4ccnc4)(c4ccc(Cl)cc4Cl)O3)cc2)CC1 (stereo not given) [KETOCONAZOLE] | 1 (≈ 1.88 µM) | 1 (≈ 1.88 µM) | 0.5 (≈ 0.941 µM) | 0.5 (≈ 0.941 µM) | > 8 | 4 (≈ 7.53 µM) | 4 (≈ 7.53 µM) | > 8 | 4 (≈ 7.53 µM) | > 8
4 | C[C@H](C(=O)N[C@H](Cn1cncn1)c1ccccc1)c1ccc(CC2CCCC2=O)cc1 (stereo not given in full) | 1 (≈ 2.4 µM) | 2 (≈ 4.8 µM) | 0.5 (≈ 1.2 µM) | 2 (≈ 4.8 µM) | > 8 | – | – | – | – | –
5 | C[C@H](C(=O)OC(Cn1cnnn1)c1ccc(F)cc1)c1ccc(CC2CCCC2=O)cc1 (stereo not given in full) | 1 (≈ 2.29 µM) | 2 (≈ 4.58 µM) | 0.5 (≈ 1.15 µM) | 2 (≈ 4.58 µM) | > 8 | – | – | – | – | –
6 | C[C@H](C(=O)OC(Cn1cnnn1)c1ccc(Cl)cc1)c1cccc(C(=O)c2ccccc2)c1 (stereo not given in full) | 0.5 (≈ 1.08 µM) | 0.5 (≈ 1.08 µM) | 1 (≈ 2.17 µM) | 2 (≈ 4.34 µM) | > 8 | – | – | – | – | –
7 | C[C@H](C(=O)N[C@H](Cn1ccnc1)c1ccccc1)c1ccc(CC2CCCC2=O)cc1 (stereo not given in full) | 2 (≈ 4.81 µM) | 1 (≈ 2.41 µM) | 0.5 (≈ 1.2 µM) | 0.5 (≈ 1.2 µM) | 4 (≈ 9.63 µM) | – | – | – | – | –
8 | C[C@H](C(=O)N(C)CC(O)(Cn1ccnc1)c1ccc(Cl)cc1)c1cccc(C(=O)c2ccccc2)c1 (stereo not given in full) | 0.5 (≈ 0.996 µM) | 0.5 (≈ 0.996 µM) | 0.5 (≈ 0.996 µM) | 1 (≈ 1.99 µM) | 4 (≈ 7.97 µM) | – | – | – | – | –
9 | C[C@H](C(=O)N[C@H](Cn1cncn1)c1ccccc1)c1cccc(C(=O)c2ccccc2)c1 | 1 (≈ 2.36 µM) | 2 (≈ 4.71 µM) | 0.5 (≈ 1.18 µM) | 1 (≈ 2.36 µM) | 2 (≈ 4.71 µM) | – | – | – | – | –
10 | COc1ccc2cc([C@H](C)C(=O)N[C@H](Cn3ccnc3)c3ccccc3)ccc2c1 | 1 (≈ 2.5 µM) | 1 (≈ 2.5 µM) | 0.5 (≈ 1.25 µM) | 0.5 (≈ 1.25 µM) | > 8 | – | – | – | – | –
11 | C[C@H](C(=O)N[C@H](Cn1ccnc1)c1ccccc1)c1cccc(C(=O)c2ccccc2)c1 | 1 (≈ 2.36 µM) | 0.5 (≈ 1.18 µM) | 1 (≈ 2.36 µM) | 2 (≈ 4.72 µM) | > 8 | – | – | – | – | –
12 | C[C@H](C(=O)N[C@H](Cn1ccnc1)c1ccccc1)c1ccc(-c2ccccc2)c(F)c1 | 0.5 (≈ 1.21 µM) | 0.5 (≈ 1.21 µM) | 0.25 (≈ 0.605 µM) | 0.5 (≈ 1.21 µM) | 4 (≈ 9.67 µM) | – | – | – | – | –
13 | C[C@H](C(=O)OC(Cn1cnnn1)c1ccc(Cl)cc1)c1ccc(-c2ccccc2)c(F)c1 (stereo not given in full) | 1 (≈ 2.22 µM) | 0.5 (≈ 1.11 µM) | 0.25 (≈ 0.554 µM) | 1 (≈ 2.22 µM) | 2 (≈ 4.44 µM) | – | – | – | – | –
14 | C[C@H](C(=O)OC(Cn1cnnn1)c1ccc(F)cc1)c1ccc(-c2ccccc2)c(F)c1 (stereo not given in full) | 0.5 (≈ 1.15 µM) | 1 (≈ 2.3 µM) | 0.5 (≈ 1.15 µM) | 0.25 (≈ 0.575 µM) | 4 (≈ 9.21 µM) | – | – | – | – | –
15 | C[C@H](C(=O)OC(Cn1ccnc1)c1ccc(F)cc1)c1cccc(C(=O)c2ccccc2)c1 (stereo not given in full) | 0.5 (≈ 1.13 µM) | 0.5 (≈ 1.13 µM) | 0.5 (≈ 1.13 µM) | 2 (≈ 4.52 µM) | 4 (≈ 9.04 µM) | – | – | – | – | –
16 | COc1ccc2cc([C@H](C)C(=O)N(C)CC(O)(Cn3ccnc3)c3ccc(Cl)cc3Cl)ccc2c1 (stereo not given in full) | 0.5 (≈ 0.976 µM) | 0.5 (≈ 0.976 µM) | 2 (≈ 3.9 µM) | 0.25 (≈ 0.488 µM) | 4 (≈ 7.81 µM) | – | – | – | – | –
17 | C[C@H](C(=O)OC(Cn1cnnn1)c1ccc(Cl)cc1)c1ccc(CC2CCCC2=O)cc1 (stereo not given in full) | 2 (≈ 4.42 µM) | 4 (≈ 8.83 µM) | 2 (≈ 4.42 µM) | 1 (≈ 2.21 µM) | > 8 | – | – | – | – | –

More lines, in order of falling MIC50 (Candida albicans [1]), values ahead:

Row | MIC50 (Candida albicans [1]) [µg/mL] | MIC50 (Cryptococcus neoformans) [µg/mL] | MIC50 (Pichia kudriavzevii) [µg/mL] | MIC50 (Candida tropicalis) [µg/mL] | MIC50 (Aspergillus fumigatus) [µg/mL] | Compound | MIC50 (Candida albicans [2]) [µg/mL] | MIC50 (Candida albicans [3]) [µg/mL] | MIC50 (Candida albicans [4]) [µg/mL] | MIC50 (Candida albicans [5]) [µg/mL] | MIC50 (Candida albicans [6]) [µg/mL]
18 | 0.5 (≈ 1.08 µM) | 1 (≈ 2.17 µM) | 1 (≈ 2.17 µM) | 0.25 (≈ 0.542 µM) | > 8 | COc1ccc2cc([C@H](C)C(=O)N(C)CC(O)(Cn3ccnc3)c3ccc(F)cc3)ccc2c1 (stereo not given in full) | – | – | – | – | –
19 | 0.5 (≈ 1.05 µM) | 2 (≈ 4.18 µM) | 1 (≈ 2.09 µM) | 1 (≈ 2.09 µM) | > 8 | COc1ccc2cc([C@H](C)C(=O)N(C)CC(O)(Cn3ccnc3)c3ccc(Cl)cc3)ccc2c1 (stereo not given in full) | – | – | – | – | –
20 | 0.5 (≈ 1.03 µM) | 0.5 (≈ 1.03 µM) | 1 (≈ 2.06 µM) | 0.5 (≈ 1.03 µM) | > 8 | C[C@H](C(=O)N(C)CC(O)(Cn1ccnc1)c1ccc(F)cc1)c1cccc(C(=O)c2ccccc2)c1 (stereo not given in full) | – | – | – | – | –
21 | 0.5 (≈ 1.19 µM) | 1 (≈ 2.39 µM) | 2 (≈ 4.78 µM) | 0.5 (≈ 1.19 µM) | 4 (≈ 9.56 µM) | COc1ccc2cc([C@H](C)C(=O)OC(Cn3ccnc3)c3ccc(F)cc3)ccc2c1 (stereo not given in full) | – | – | – | – | –
22 | 0.5 (≈ 1.14 µM) | 0.5 (≈ 1.14 µM) | 0.25 (≈ 0.572 µM) | 0.5 (≈ 1.14 µM) | 4 (≈ 9.16 µM) | COc1ccc2cc([C@H](C)C(=O)OC(Cn3cnnn3)c3ccc(Cl)cc3)ccc2c1 (stereo not given in full) | – | – | – | – | –
23 | 0.5 (≈ 1.21 µM) | 0.5 (≈ 1.21 µM) | 0.5 (≈ 1.21 µM) | 0.25 (≈ 0.603 µM) | 4 (≈ 9.65 µM) | C[C@H](C(=O)N[C@H](Cn1cncn1)c1ccccc1)c1ccc(-c2ccccc2)c(F)c1 | – | – | – | – | –
24 | 0.5 (≈ 1.12 µM) | 0.5 (≈ 1.12 µM) | 0.5 (≈ 1.12 µM) | 1 (≈ 2.25 µM) | > 8 | C[C@H](C(=O)OC(Cn1cnnn1)c1ccc(F)cc1)c1cccc(C(=O)c2ccccc2)c1 (stereo not given in full) | – | – | – | – | –
25 | 0.25 (≈ 0.624 µM) | 1 (≈ 2.5 µM) | 0.25 (≈ 0.624 µM) | 0.25 (≈ 0.624 µM) | 4 (≈ 9.99 µM) | COc1ccc2cc([C@H](C)C(=O)N[C@H](Cn3cncn3)c3ccccc3)ccc2c1 | – | – | – | – | –
26 | 0.25 (≈ 0.475 µM) | 0.5 (≈ 0.95 µM) | 0.5 (≈ 0.95 µM) | 0.25 (≈ 0.475 µM) | 4 (≈ 7.6 µM) | C[C@H](C(=O)N(C)CC(O)(Cn1ccnc1)c1ccc(Cl)cc1Cl)c1ccc(-c2ccccc2)c(F)c1 (stereo not given in full) | – | – | – | – | –
27 | 0.25 (≈ 0.526 µM) | 0.5 (≈ 1.05 µM) | 0.25 (≈ 0.526 µM) | 0.25 (≈ 0.526 µM) | 4 (≈ 8.41 µM) | C[C@H](C(=O)N(C)CC(O)(Cn1ccnc1)c1ccc(F)cc1)c1ccc(-c2ccccc2)c(F)c1 (stereo not given in full) | – | – | – | – | –
